Our source for the activation values is patent publication US9404081B2, “Pyruvate kinase activators for use in therapy” (AGIOS PHARMACEUTICALS, INC., priority 2011, dated 2016).

Common to all, as to assay type: biochemical
Test [1] deals with PKR R532W (Homo sapiens, UniProt P30613, R532W). Put plainly: PKR R532W Single Point Percent Activation Assay. The following applies: read-out: Act, % 532W. As to the method: PKR R532W Single Point Percent Activation Assay
(§1) A compound described herein was diluted with DMSO and tested at 1 μM concentration. The enzyme was diluted in 1× Buffer: (100 mM KCl, 50 mM Tris 7.5, 5 mM MgCl2, 1 mM DTT, 0.03% BSA). 2 μL of compound solution was first added into wells, and then 180 μL of enzyme solution was added. Assays were assembled except for ADP, and plates were stored for 60 minutes at RT. 20 μL ADP was added to start the assay and assay output was evaluated using OD340 at SpectraMax. The assay was run at room temperature.
Final concentration: PKR R532W (100 ng/well), Tris pH 7.5 (50 mM), KCl (100 mM), MgCl2 (5 mM), ADP (0.36 mM), PEP (0.1 mM), NADH (180 μM), LDH (0.5 units, Sigma 59023), DTT (1 mM) and BSA (0.03%).

Test [2] deals with PKR T384W (Homo sapiens, UniProt P30613, T384W). The test can be described thus: PKR T384W Single Point Percent Activation Assay. Conditions: read-out: Act. % 384W. On the procedure: PKR T384W Single Point Percent Activation Assay
Chain of PKR T384W (P30613 whole entry T384W): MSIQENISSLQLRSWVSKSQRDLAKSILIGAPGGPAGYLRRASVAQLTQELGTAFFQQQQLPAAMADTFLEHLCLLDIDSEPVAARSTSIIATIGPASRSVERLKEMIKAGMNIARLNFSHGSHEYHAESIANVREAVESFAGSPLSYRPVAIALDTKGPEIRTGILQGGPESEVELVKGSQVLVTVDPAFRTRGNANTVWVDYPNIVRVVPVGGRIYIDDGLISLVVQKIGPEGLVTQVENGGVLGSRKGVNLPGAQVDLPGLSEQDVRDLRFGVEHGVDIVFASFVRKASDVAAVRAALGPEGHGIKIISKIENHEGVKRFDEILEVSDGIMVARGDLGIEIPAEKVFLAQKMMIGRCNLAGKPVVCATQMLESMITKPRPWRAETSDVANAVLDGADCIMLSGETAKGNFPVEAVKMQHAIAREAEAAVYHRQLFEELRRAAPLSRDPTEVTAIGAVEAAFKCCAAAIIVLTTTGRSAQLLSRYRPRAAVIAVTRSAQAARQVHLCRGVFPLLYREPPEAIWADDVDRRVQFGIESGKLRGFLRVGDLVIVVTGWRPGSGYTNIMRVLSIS
A compound described herein was diluted with DMSO and tested at 1 μM concentration. The enzyme was diluted in 1× Buffer: (100 mM KCl, 50 mM Tris 7.5, 5 mM MgCl2, 1 mM DTT, 0.03% BSA). 2 μL of compound solution was first added into wells, and then 180 μL enzyme solution was added. Assays were assembled except for ADP, and plates were stored for 60 minutes at RT. 20 μL ADP was added to start the assay and assay output was evaluated using OD340 at SpectraMax. The assay was run at room temperature.
Final concentration: PKR T384W soluble (300 ng/well), Tris pH 7.5 (50 mM), KCl (100 mM), MgCl2 (5 mM), ADP (0.08 mM), PEP (0.23 mM), NADH (180 μM), LDH (0.5 units, Sigma 59023), DTT (1 mM) and BSA (0.03%).

Test [3] has as its target PKR R510Q (Homo sapiens, UniProt P30613, R510Q). The test can be described thus: PKR R510Q Single Point Percent Activation Assay. Conditions: read-out: Act. % 510Q. As to the method:
PKR R510Q Single Point Percent Activation Assay
as §1
Final concentration: PKR R510Q (40 ng/well), Tris pH 7.5 (50 mM), KCl (100 mM), MgCl2 (5 mM), ADP (0.2 mM), PEP (0.11 mM), NADH (180 μM), LDH (0.5 units, Sigma 59023), DTT (1 mM) and BSA (0.03%).

Test [4] has as its target PKR wt (Homo sapiens, UniProt P30613). Put plainly: PKR WT Single Point Percent Activation Assay. As to the method:
PKR WT Single Point Percent Activation Assay
as §1
Final concentration: PKR wt (100 ng/well), Tris pH 7.5 (50 mM), KCl (100 mM), MgCl2 (5 mM), ADP (0.48 mM), PEP (0.15 mM), NADH (180 μM), LDH (0.5 units, Sigma 59023), DTT (1 mM) and BSA (0.03%).

Chain of PKR wt (P30613 whole entry): as the sequence (P30613 whole entry T384W) above, with W384T counted along it
Chain of PKR R510Q (P30613 whole entry R510Q): as the sequence (P30613 whole entry T384W) above, with W384T, R510Q counted along it
Chain of PKR R532W (P30613 whole entry R532W): as the sequence (P30613 whole entry T384W) above, with W384T, R532W counted along it

`C[C@@H]1CN(Cc2ccccc2)CCN1C(=O)c1ccc(NS(=O)(=O)c2cccc3cccnc23)cc1`: the activation at 1 µM in test [1], in test [2], in test [3] and in test [4] was 101 to 500% each time.

On to `C[C@H]1CN(C(=O)c2ccc(NS(=O)(=O)c3cccc4cccnc34)cc2)CCN1C(=O)c1ccccn1`, for which the activation at 1 µM in test [1] was 101 to 500%; in test [2], 101 to 500%; in test [3], 1 to 100%; in test [4] it was 101 to 500%.

Take `C[C@H]1CN(C(=O)c2ccccn2)CCN1C(=O)c1ccc(NS(=O)(=O)c2cccc3cccnc23)cc1`: the activation at 1 µM in test [1] fell in the range of 101 to 500%; in test [2], 1 to 100%; in test [3], 1 to 100%; in test [4] it was 101 to 500%.

In the case of `CC(c1ccc(F)cc1F)N1CCN(C(=O)c2ccc(NS(=O)(=O)c3cccc4cccnc34)cc2)[C@@H](C)C1` (some centres unmarked), the activation at 1 µM in test [1] was 101 to 500%; in test [2], 101 to 500%; in test [3], 1 to 100%; in test [4] it was 101 to 500%.

Consider `CC(c1cc(F)cc(F)c1)N1CCN(C(=O)c2ccc(NS(=O)(=O)c3cccc4cccnc34)cc2)[C@@H](C)C1` (some centres unmarked), for which the activation at 1 µM in test [1], in test [2], in test [3] and in test [4] was 1 to 100% each time.

As to `CC(c1ccc(F)cc1)N1CCN(C(=O)c2ccc(NS(=O)(=O)c3cccc4cccnc34)cc2)[C@@H](C)C1` (some centres unmarked), the activation at 1 µM in test [1], in test [2], in test [3] and in test [4] was 101 to 500% throughout.

With `CC(c1c(F)cc(F)cc1F)N1CCN(C(=O)c2ccc(NS(=O)(=O)c3cccc4cccnc34)cc2)[C@@H](C)C1` (some centres unmarked), the activation at 1 µM in test [1], in test [2], in test [3] and in test [4] was 101 to 500% throughout.

Regarding `CC(c1cc(F)c(F)cc1F)N1CCN(C(=O)c2ccc(NS(=O)(=O)c3cccc4cccnc34)cc2)[C@@H](C)C1` (some centres unmarked), the activation at 1 µM in test [1] lay within 101 to 500%; in test [2], 101 to 500%; in test [3], 1 to 100%; in test [4], 101 to 500%.

Turning to `CC(C)[C@H]1CN(Cc2ccc(F)cc2)CCN1C(=O)c1ccc(NS(=O)(=O)c2cccc3cccnc23)cc1`, the activation at 1 µM in test [1] was in the range of 1 to 100%; in test [2], 101 to 500%; in test [3], 1 to 100%; in test [4], 1 to 100%.

For the compound `CC(C)[C@H]1CN(Cc2cc(F)cc(F)c2)CCN1C(=O)c1ccc(NS(=O)(=O)c2cccc3cccnc23)cc1`, the activation at 1 µM was 1 to 100% in test [1], 101 to 500% in test [2], 1 to 100% in test [3] and 1 to 100% in test [4].

As to `CC(C)[C@H]1CN(C(C)c2ccc(F)cc2)CCN1C(=O)c1ccc(NS(=O)(=O)c2cccc3cccnc23)cc1` (some centres unmarked), the activation at 1 µM lay within 101 to 500% in test [1], 101 to 500% in test [2], 1 to 100% in test [3] and 101 to 500% in test [4].

In the case of `O=C(c1ccc(NS(=O)(=O)c2cccc3cccnc23)cc1)N1CCN(CC2CC2)c2ccccc21`, the activation at 1 µM lay within 101 to 500% in test [1], 101 to 500% in test [2], 1 to 100% in test [3] and 101 to 500% in test [4].

On to `O=C(c1ccc(NS(=O)(=O)c2cccc3cccnc23)cc1)N1CCN(Cc2cc(F)cc(F)c2)c2ccccc21`, for which the activation at 1 µM lay within 101 to 500% in test [1], 101 to 500% in test [2], 1 to 100% in test [3] and 101 to 500% in test [4].

As to `CC(C)OC(=O)N1CCN(C(=O)c2ccc(NS(=O)(=O)c3cccc4cccnc34)cc2)c2ccccc21`, the activation at 1 µM in test [1], in test [2], in test [3] and in test [4] was 1 to 100% each time.

For the compound `C[C@H]1CN(CC2CC2)CCN1C(=O)c1ccc(NS(=O)(=O)c2cccc3cccnc23)cc1Cl`, the activation at 1 µM in test [1], in test [2], in test [3] and in test [4] was 1 to 100% in each case.

As for `C[C@H]1CN(Cc2cc(F)cc(F)c2)CCN1C(=O)c1ccc(NS(=O)(=O)c2cccc3cccnc23)cc1Cl`, the activation at 1 µM lay within 101 to 500% in test [1], 1 to 100% in test [2], 101 to 500% in test [3] and 1 to 100% in test [4].

Regarding `O=C(c1ccc(NS(=O)(=O)c2cccc3cccnc23)cc1)N1CCN(CC2CC2)C[C@@H]1c1ccccc1`, the activation at 1 µM in test [1], in test [2], in test [3] and in test [4] was 1 to 100% in each case.

As to `O=C(c1ccc(NS(=O)(=O)c2cccc3cccnc23)cc1)N1CCN(Cc2cc(F)cc(F)c2)C[C@@H]1c1ccccc1`, the activation at 1 µM fell in the range of 1 to 100% in test [1], 1 to 100% in test [2], 101 to 500% in test [3] and 1 to 100% in test [4].

For `CC(c1ccc(Cl)c(F)c1)N1CCN(C(=O)c2ccc(NS(=O)(=O)c3cccc4cccnc34)cc2)[C@@H](C)C1` (some centres unmarked), the activation at 1 µM is 1 to 100% in test [1], 1 to 100% in test [2], 101 to 500% in test [3] and 1 to 100% in test [4].

For the compound `CC(c1ccccc1F)N1CCN(C(=O)c2ccc(NS(=O)(=O)c3cccc4cccnc34)cc2)[C@H](C)C1` (some centres unmarked), the activation at 1 µM in test [1], in test [2], in test [3] and in test [4] was 1 to 100% each time.

Consider `C[C@H]1CN(Cc2ccc(F)cc2)CCN1C(=O)c1ccc(NS(=O)(=O)c2cccc3cccnc23)cc1Cl`, for which the activation at 1 µM in test [1] was in the range of 101 to 500%; in test [2], 1 to 100%; in test [3], 1 to 100%; in test [4], 1 to 100%.

For the compound `C[C@H]1CN(Cc2ccc(Cl)c(F)c2)CCN1C(=O)c1ccc(NS(=O)(=O)c2cccc3cccnc23)cc1Cl`, the activation at 1 µM is 101 to 500% in test [1], 101 to 500% in test [2], 1 to 100% in test [3] and 1 to 100% in test [4].

With `C[C@H]1CN(CC2CCCC2)CCN1C(=O)c1ccc(NS(=O)(=O)c2cccc3cccnc23)cc1Cl`, the activation at 1 µM in test [1], in test [2], in test [3] and in test [4] was 1 to 100% in each case.

Turning to `C[C@H]1CN(CC2CCOC2)CCN1C(=O)c1ccc(NS(=O)(=O)c2cccc3cccnc23)cc1Cl` (some centres unmarked), the activation at 1 µM in test [1] lay in the range of 101 to 500%; in test [2], 101 to 500%; in test [3], 1 to 100%; in test [4], 1 to 100%.

As for `C[C@H]1CN(Cc2c(F)cc(F)cc2F)CCN1C(=O)c1ccc(NS(=O)(=O)c2cccc3cccnc23)cc1Cl`, the activation at 1 µM in test [1] was 1 to 100%; in test [2], 101 to 500%; in test [3] it was 101 to 500%; in test [4], 101 to 500%.

Regarding `CC(c1ccc(F)c(F)c1F)N1CCN(C(=O)c2ccc(NS(=O)(=O)c3cccc4cccnc34)cc2)[C@H](C)C1` (some centres unmarked), the activation at 1 µM in test [1] was 1 to 100%; in test [2] it was 101 to 500%; in test [3], 1 to 100%; in test [4], 101 to 500%.
